# In US20250134860A1, “NOVEL COMPOUND, AND COMPOSITION FOR PREVENTING, ALLEVIATING OR TREATING BACTERIAL INFLAMMATION AND INFLAMMASOME-MEDIATED DISEASES, COMPRISING SAME AS ACTIVE INGREDIENT” (Quorum Bio Co., Ltd., priority 2022, published 2025):
# Values joined by “and” are separate entries in the source; they are usually repeats but may differ in a detail not shown here. Identical values can stand only once.
# Columns and labels:
# [1] = General symptoms and body weight in the rat micronucleus study; assay type: in vivo; conditions: positive control 20 mg/kg/day P.O.
# Description: In addition, body weight was measured on the day of administration start and bone marrow collection to confirm presence/absence of changes due to administration of the substance, and the results are shown in Table 4 below.
# [2] = tested on: Sprague-Dawley rat bone marrow cells; experiment: Rat micronucleus test; conditions: positive control 20 mg/kg/day P.O., 24 hours after dosing
# Description: Hair was removed from the administration site (subcutaneous) of the SD rats, the administration concentration of the example compounds were set to a low dose (500 mg/kg/day), a medium dose (1000 mg/kg/day), and a high dose (2000 mg/kg/day), and administered subcutaneously to the left and right […] of the test system (10 ml/kg/day each), and the compound was administered subcutaneously in divided doses to the left and right […] of the test system (10 ml/kg/day each).
# 24 hours after the second administration of the test substance, the femur was removed from each group to collect bone marrow cells. 0.5 mL of 10% neutral formalin was added to the bone marrow cell suspension, fixed for 5 minutes, centrifuged for 5 minutes (4° C., 1,000 rpm, Micro17TR, Hanil Science Industrial, Republic of Korea) to remove the supernatant. Then, 0.3 mL of 10% neutral formalin was added to the precipitated bone marrow cells, suspended, filtered through a cell strain, and transferred to a storage tube. The fixed bone marrow cell suspension was dropped onto a cover glass, and then covered with a slide glass coated with 20 μL of 0.05% acridine orange to prepare an observation slide. The observation slide was observed under a microscope (600× magnification, BX51, Olympus, Japan).
# As an indicator of bone marrow cell proliferation inhibition, 500 total red blood cells per individual were observed, and the ratio of polychromatic red blood cells to total red blood cells (PCE/(PCE+NCE)) was calculated. As a positive control, cyclophosphamide (Cas No: 50-18-0) was administered at a dose of 20 mg/kg/day.
# [3] = Plasma stability in human plasma (LC-MS/MS); assay type: in vitro ADME; conditions: 37° C., 0, 30, 60, 120, 240 minutes
# Description: (§1) The compounds of Examples 1-2 and Comparative Example, and the substance used as the positive control (Eucatropine, Loterpresnol) were dissolved in DMSO to prepare a stock solution having a concentration of 10 mM. The stock solution of each test substance was then diluted to prepare 0.2 mM and 1 mM working solutions and used for the test (For the comparative example compound, 70% acetonitrile was used as a solvent, and for the compound of Example 1-2, 50% acetonitrile was used as a solvent).
# (§2) The positive control and the standard solution of the test substance were placed in tubes containing two types of plasma (human and rat) at concentrations of 1 μM and 5 μM, respectively, and then incubated at 37° C. for a prescribed time (0, 30, 60, 120, 240 minutes) while shaking and mixing. At each time point, the mixture sample was dispensed in 100 μl increments into a cell culture plate (96-well plate) containing 400 μl of quench reagent to terminate the test, After centrifugation (5000×g, 10 min), 100 μl of the supernatant was taken out, mixed with 200 μl of ultrapure water, and the solution was then injected into a LC-MS/MS system to analyze the drug in each time zone. Thereby, the plasma stability of the compounds of Comparative Example and Example 1-2 was evaluated.
# [4] = Plasma stability in rat plasma (LC-MS/MS); assay type: in vitro ADME; conditions: 37° C., 0, 30, 60, 120, 240 minutes
# Description: as §1, §2
# P. gingivalis = experiment: Inhibitory effect on P. gingivalis biofilm formation (crystal violet, OD590nm); assay type: cell-based, Porphyromonas gingivalis; conditions: 48 hours; for biofilm formation of P. gingivalis increased by DPD: DPD 10 μM + compound 0.002, 0.02, 0.2, 2 μM, anaerobic, OD590nm
# [5] = tested on: gingipain genes (rgpA, rgpB, kgp); experiment: Inhibitory effect on gingipain expression of P. gingivalis (RT-qPCR); assay type: cell-based, Porphyromonas gingivalis; conditions: 48 hours
# Description: The compounds of Examples were respectively treated onto the medium cultured with P. gingivalis, and the expression levels of three gingipain proteins (lysine-gingipain (Kgp), arginine-gingipain A (RgpA), and arginine-gingipain B (RgpB)) produced by P. gingivalis, which are major virulence factors and proteolytic enzymes, were confirmed.
# The culture medium containing 10 μM of DPD (4,5-dihydroxy-2,3-pentane dione), which is a precursor of the bacterial signal substance (Autoinducer-2), and the culture medium containing 2 μM of the example compound or not were respectively dispensed into a cell culture plate (48 well plate), and then P. gingivalis (2×10^8 cell/ml) were inoculated for each group. The culture medium cultured with bacteria was cultured at 37° C. under anaerobic conditions (10% H2, 10% CO2, and 80% N2) for 48 hours.
# After 48 hours, each culture medium was centrifuged at 13,000 rpm for 1 minute to remove the supernatant, and total RNA was extracted using easy-BLUE™ Total RNA Extraction kit (iNtRON Biotechnology, Sungnam, Korea) to synthesize cDNA, and then the expression of the gingipain gene was confirmed by real-time PCR method. cDNA was synthesized using AccuPower® CycleScript RT PreMix dN6 (Bioneer, Daejeon, Korea), and real-time (quantitative) reverse transcription PCR (RT-qPCR) was carried out using Power SYBR™ Green PCR Master Mix (Applied Biosystems, Foster City, CA, USA).
# RT-qPCR amplification conditions were as follows: after enzyme activation at 95° C. for 3 minutes, denaturation at 95° C. for 10 seconds and primer annealing at 60° C. for 30 seconds were repeated 40 times, and analysis was performed using a Bio-Rad CFX Connect Real-Time PCR Detection System (Bio-Rad, Hercules, CA, USA). To normalize the expression level of the gingipain gene, the 16s rRNA gene was used, and the gene expression level was calculated using the Comparative Ct Method (ΔΔCt), which is shown in FIGS. 5a to 5c.
structure (smiles),measurement,setting,value
"O=P1(N(CCCl)CCCl)NCCCO1 (stereo not shown) [CPA, cyclophosphamide]","Body weight (g) 1 day after 2nd dosing, Mean","[1]; administered once, group mean",278.9 g
same,Body weight (g) 1 day after 2nd dosing,"[1]; administered once, individual animals 1501-1505",279.4 g and 281.5 g
same,"Body weight (g) before 1st dosing, Mean",[1]; group mean,266.8 g
same,Body weight (g) before 1st dosing,[1]; individual animals 1501-1505,282.2 g
same,"MNPCE/PCE, %(Mean)",[2]; group mean,3.060%
same,"PCE/(PCE+NCE), %(Mean)",[2]; group mean,33.5%
same,PCE/(PCE+NCE): PCE count,"[2]; individual animals, per 500 total red blood cells",166 and 170
same,MNPCE/PCE: MNPCE count,"[2]; individual animals, per 4,000 PCE",150 and 154 and 167 (2×)
"O=C1O/C(=C(\Br)c2ccccc2)c2ccccc21 [Comparative Example, (Z)-3-(bromo (phenyl)methylene) isobenzofuran-1 (3H)-one, reference compound]",amount of the compound remaining in the plasma,[3],decreased over time
same,amount of the compound remaining in the plasma,[4],decreased over time
same,biofilm formation of P. gingivalis increased by DPD,P. gingivalis,inhibited in a concentration-dependent manner
"CC(=O)C(=O)C(O)CO (stereo not shown) [DPD, 4,5-dihydroxy-2,3-pentanedione, reference compound]","expression levels of three gingipain genes (rgpA, rgpB, kgp)",[5]; DPD 10 μM alone compared with untreated control,increased more than in the control group
same,biofilm formation of P. gingivalis,P. gingivalis; DPD 10 μM alone compared to medium with PBS (CT),significantly increased
"CN1C(=O)c2ccccc2C1=C(c1ccccc1)c1ccccc1 [Example 1-1, 3-(diphenylmethylene)-2-methylisoindolin-1-one]","expression levels of three gingipain genes (rgpA, rgpB, kgp) increased by DPD","[5]; DPD 10 μM + compound 2 μM, normalized to 16s rRNA",reduced
same,biofilm formation of P. gingivalis increased by DPD,P. gingivalis,inhibited in a concentration-dependent manner
"COc1ccc(C(=C2c3ccccc3C(=O)N2C)c2ccc(OC)cc2)cc1 [Example 1-3, 3-(bis(4-methoxyphenyl)methylene)-2-methylisoindolin-1-one]",biofilm formation of P. gingivalis increased by DPD,P. gingivalis,inhibited in a concentration-dependent manner
